Source: US10772885B2, “Composition for treating ocular diseases and methods of usage and making” (REYOUNG (SUZHOU) BIOLOGY SCIENCE & TECHNOLOGY CO., LTD., priority 2016, dated 2020)

Test system: CNV
Test: Laser photocoagulation-induced CNV in rats (FP/FFA, fluorescein leakage grading)
Format: in vivo, Brown Norway (BN) rats
Settings: for Mean fluorescein leakage score vs model group / Ratio of grade 3 light spots vs model group: after treatment
Experimental: Specific-pathogen-free (SPF) grade Brown Norway (BN) rats, half male and half female, were treated with fundus laser photocoagulation, the date of which was counted as D0. At D8, 32 rats with similar areas of fluorescence leakage were selected, separated to 8 groups, with each group including 4 rats (half male and half female): • Group 1 is a model group without any treatment. • Group 2 is a positive control group, in which Conbercept was injected into the vitreous cavity of the rats' eyes at the dosage of 50 μg/eye and […]. • In group 3, both eyes of the rats were administered with nintedanib ethanesulfonate at the dosage of 125 μg/eye and 6 times per day from day 8 and day 15 (D8˜D15). • In group 4, both eyes of the rats were administered with nintedanib ethanesulfonate at the dosage of 25 μg/eye and 6 times per day from day 8 and day 15 (D8˜D15). • In group 5, both eyes of the rats were administered with nintedanib ethanesulfonate at the dosage of 5 μg/eye and 6 times per day from day 8 and day 15 (D8˜D15). • In group 6, both eyes of the rats were administered with nintedanib ethanesulfonate at the dosage of 2.5 μg/eye and 6 times per day from day 8 and day 15 (D8˜D15). • In group 7, both eyes of the rats were administered with nintedanib ethanesulfonate at the dosage of 0.5 μg/eye and 6 times per day from day 8 and day 15 (D8 D15). • In […], both eyes of the rats were administered with nintedanib ethanesulfonate at the dosage of 0.1 μg/eye and 6 times per day from day 8 and day 15 (D8 D15).
All rats were tested with fundus photography (“FP”) and fundus fluorescein angiography (“FFA”) one day before administration and 8 days after administration. The degree of CNV was graded according to the degree of fluorescence leakage. The results were used to evaluate the effect of nintedanib ethanesulfonate on rat CNV, the results of which are shown in FIG. 2.
The ratio is calculate by comparing the early-phase and last-phase fluorescein angiograms. The fluorescence leakage of the light spots was graded as follows: grade 0 (no leakage); grade 1 (slight leakage, leakage area is 1%-50% of the light spot size); grade 2 (moderate leakage, leakage area is 50%-100% of the light spot size); grade 3 (strong leakage, leakage area is larger than the light spot size). The ratios of light spots for certain grade were calculated as follows: Ratio of light spot (%)=(the number of light spot at certain grade÷the sum of four kinds of light spots)×100.
The mean fluorescein leakage score is calculated as follows: Mean fluorescein leakage score=[(number of grade 0 light spot×0)+(number of grade 1 light spot×1)+(number of grade 2 light spot×2)+(number of grade 3 light spot×3)]÷the sum of four kinds of light spots

[1] = groups 3-6 (125, 25, 5, 2.5 μg/eye)
[2] = positive control group, 50 μg/eye into the vitreous cavity

Compound: COC(=O)c1ccc2c(c1)NC(=O)/C2=C(\Nc1ccc(N(C)C(=O)CN2CCN(C)CC2)cc1)c1ccccc1 [nintedanib ethanesulfonate]
- Ratio of grade 1 light spots vs positive control group (all groups): increased
- Ratios of light spots, mean fluorescein leakage score and development of CNV (eye drops at 125, 25, 5, 2.5, 0.5 μg/eye): can inhibit
- Ratio of grade 1 light spots vs positive control group (fifth group (5 μg/eye), p≤0.05): significantly increased
- Leakage vs positive control group (group 5 (5 μg/eye), p≤0.05): significantly decreased
- Ratio of grade 3 light spots vs positive control group [1]: lower
- Mean fluorescein leakage score vs model group [1]: significantly decreased
- Ratio of grade 3 light spots vs model group [1]: significantly decreased
- Ratio of grade 1 light spots vs model group (groups 3-6 (125, 25, 5, 2.5 μg/eye), p≤0.05): increased
- Adverse reactions (groups 3 and 4 (125 and 25 μg/eye, 6 times per day, D8-D15), some of the animals): corneal opacity
- Inhibition of CNV in rats (groups 4-6 (25, 5, 2.5 μg/eye), 1 week after photocoagulation): significantly inhibited the CNV
- Mean fluorescein leakage score (groups 7 and 8 (0.5 and 0.1 μg/eye)): no statistically significant difference
- Adverse reactions (other groups (5, 2.5, 0.5, 0.1 μg/eye, 6 times per day, D8-D15)): did not experience any significantly adverse reactions
- Ratio of the level 0 and level 2 light spot vs positive control group (other groups, p>0.05): no significant difference
- Inhibition of leakage vs positive control group (printed: first group): slightly stronger
- Leakage caused by CNV (rat, in vivo): can inhibit the leakage caused by CNV

Compound: Conbercept: Monoclonal antibody or fusion protein targeting VEGF, developed by a Chinese company and launched in 2013; positive control
- Mean fluorescein leakage score vs model group [2]: significantly decreased
- Ratio of grade 3 light spots vs model group [2]: significantly decreased
